Where a SMILES comes first, the peptide text is derived from it. Bridges are numbered along the chain shown (N, C = ends).
Experiments:
[1] = mechanical hyperalgesia / nociceptive behavior in mice (von Frey, up-down); format: in vivo, mouse (male C57BL/6); settings: 40 nmol/kg
Procedure: In the present study, male C57BL/6 mice weighing 20-25 g were utilized. This study was performed following the Guide for the Care and Use of Laboratory Animals released by the United States National Institutes of Health (US NIH). Our study protocol was approved by the Animal Experiments Ethics Committee at Central Southern University (No. 2018-2-6). Each operation was performed under isoflurane-induced anesthesia to reduce pain and minimize animal suffering. Lumbar puncture was also conducted for intrathecal injection, as described previously. Next, the effect of JZTX-X on nociception was evaluated by assessing the behaviors during the mechanical hyperalgesia process. The JZTX-X-induced mechanical hyperalgesia was investigated by two experiments via various administration routes, including intrathecal and intraplantar injections. Then, animals were challenged via intrathecal (10 µL) or intraplantar (20 µL) injection of JZTX-X (40 nmol/kg). The control group was given a physiological solution, which contained 0.9% NaCl, […].
Mechanical hyperalgesia was measured according to the previously depicted “up-down” paradigm. Individual mice were allowed to acclimate for at least 30 min on the mesh floor in suspended chambers. After acclimatization, various calibrated von Frey filaments (Stoelting, Wood Dale, IL) were applied to all animals, which were vertical to the hind paw plantar surfaces becausethere was enough force for bending those filaments for 6 s. Later, the animal responses were recorded. The positive response was defined as paw flinching or brisk withdrawal. When there was no response, force filament at a greater level was applied. Accordingly, force ligament at a lower level was applied […]. The “up-down” approach was adopted to calculate the 50% likelihood where one withdrawal response was produced by the simple stimulus.

Kv2.1 = test: microelectrode voltage-clamp, Xenopus laevis oocytes, Kv2.1; format: cell-based; settings: 10 μM, 300-ms depolarization to +20 mV from -90 mV, pH 7.5, 19-23°C, n = 3
Procedure: Briefly, plasmids were linearized, and transcription was carried out according to the standardized protocol. Afterwards, the capped cRNAs that encoded the related ion channels were prepared. To conduct transcription in vitro, firstly, NotL was utilized to linearize plasmids pCI that contained both Kv1.1 (Accession: NM_010595.3) and Kv2.1 (Accession: AF026005.1), whereas SphI was adopted to linearize plasmid PcDNA3 containing Kv1.2 (Accession: NM_012970.3) gene. […] Thereafter, the linearized plasmids were used as the templates to synthesize cRNAs in vitro using the large-scale T7 mMESSAGE mMACHINE transcription kit (Ambion, USA).
A mature female X. laevis was placed on the ice for anesthesia, and then the Xenopus laevis oocytes at stage IV-VI were extracted. Subsequently, those extracted oocytes were treated by collagenase (1 mg/mL) contained within the calcium-depleted ND96 solution (containing 96 mM NaCl, 10 mM HEPES, 1 mM MgCl2, and 2 mM KCl) for defolliculation. […]
Firstly, the effects of JZTX-X on the isoforms of potassium channels (including Kv1.1-1.3, Kv2.1, as well as Kv4.2-4.3) contained within the X. laevis oocytes were investigated through the microelectrode voltage-clamp approach. […] We also determined the effects of JZTX-X on Ito potassium channels in rat DRG neurons; those current amplitudes were inhibited by 54.4±6.8% when 500 nM JZTX-X was applied (Fig. 3K, n = 5).

HVA Cav channels = test: whole-cell voltage-clamp, HVA Cav currents of rat DRG neurons; format: cell-based; settings: 10 μM, n = 3

## CC(C)C[C@@H]1NC(=O)[C@H](CCCCN)NC(=O)[C@H](Cc2ccc(O)cc2)NC(=O)[C@@H]2CSSC[C@@H]3NC(=O)[C@H](Cc4ccc(O)cc4)NC(=O)[C@H](Cc4ccccc4)NC(=O)CNC(=O)[C@H](C)NC(=O)[C@H](CSSC[C@H](NC(=O)[C@@H](N)CC(C)C)C(=O)N[C@@H](CO)C(=O)N[C@@H](CCCNC(=N)N)C(=O)N[C@@H](CCC(=O)O)C(=O)NCC(=O)N[C@@H](CCC(=O)O)C(=O)N[C@@H](Cc4ccccc4)C(=O)N2)NC(=O)[C@H](CSSC[C@@H](C(=O)N[C@@H](Cc2ccc(O)cc2)C(=O)N[C@@H](CCCNC(=N)N)C(=O)N[C@@H](CC(N)=O)C(=O)O)NC(=O)[C@H](Cc2c[nH]cn2)NC(=O)[C@H](CC(C)C)NC(=O)[C@H](C(C)C)NC(=O)[C@H](Cc2ccccc2)NC(=O)[C@H](C)NC(=O)[C@H](CCCCN)NC3=O)NC(=O)[C@H](CCCCN)NC(=O)[C@H](CCCNC(=N)N)NC1=O [JZTX-X, Jingzhaotoxin-X] (H-LCSREGEFCYKLRKCCAGFYCKAFVLHCYRN-OH; disulfide 2-16, 9-21, 15-28; N-terminus assumed)
[1]; intraplantar, n = 8
  baseline threshold of tactile withdrawal: markedly decreased
[1]; intrathecal or intraplantar, after cessation of treatment
  duration of reduced paw withdrawal threshold: at least 120 min
[1]; intrathecal or intraplantar, n = 8
  spontaneous nociceptive behaviors: did not induce spontaneous nociceptive behaviors
[1]; intrathecal, n = 8
  baseline threshold of tactile withdrawal: markedly decreased
Kv2.1
  inhibition of Kv2.1 current: less than 5%
HVA Cav channels
  inhibition of HVA Cav current: less than 5%

— paper PMC7269146, “Jingzhaotoxin-X, a gating modifier of Kv4.2 and Kv4.3 potassium channels purified from the venom of the Chinese tarantula Chilobrachys jingzhao” (The Journal of Venomous Animals and Toxins Including …, 2020)
